Among the data in patent US9688684B2, “Substituted tetrazolo[1,5-a]pyrazines as ROR-gamma inhibitors” (Merck Patent GmbH, priority 2013, dated 2017) are IC50 values, retold here.

Broadly, the IC50 is the concentration that gives 50% inhibition. Lower therefore signals inhibition by little substance.

Each structure is given as a SMILES string.

The target of assay [1] is RORγ Ligand binding domain (RORγ-LBD, aa 238-497, NP_001001523) (Homo sapiens (Human), UniProt P51449). The assay can be described thus: ROR γ GAI4 Reporter Gene Assay (Mammalian one-hybrid, M1H) in 293T cells. The class given is cell-based. The text has this: ROR γ GAI4 Reporter Gene Assay
Sequence of RORγ Ligand binding domain (RORγ-LBD, aa 238-497, NP_001001523) (P51449 259-518): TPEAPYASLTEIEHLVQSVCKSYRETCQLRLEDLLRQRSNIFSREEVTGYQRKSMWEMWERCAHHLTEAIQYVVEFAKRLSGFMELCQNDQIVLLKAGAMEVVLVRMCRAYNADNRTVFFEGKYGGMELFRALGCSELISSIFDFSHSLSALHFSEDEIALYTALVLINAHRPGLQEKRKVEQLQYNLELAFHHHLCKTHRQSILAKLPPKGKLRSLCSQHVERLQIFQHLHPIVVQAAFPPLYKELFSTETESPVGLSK
A Mammalian one-hybrid system is used to perform a cell-based functional transactivation assay for detecting RORγ activity modulators.
The Mammalian-1-Hybrid is derived from the Mammalian-2-Hybrid setup. Whereas in the latter, the binding partners are defined in their role as interaction, transactivation and DNA-binding components, the Mammalian-1-Hybrid makes use of the fact that all mammalian cell types express a set of Nuclear Receptors and their associated cofactors. […] A Gal4 minimal promoter driven luciferase construct (pFR-Luc from Stratagene, containing a synthetic promoter with five tandem repeats of the yeast GAL4 binding sites controlling expression of the Photinus pyralis luciferase gene) is used as reporter. The Gal4-DBD-NR-LBD fusion protein by itself cannot initiate transcription and is dependent on the presence of cofactors present in the cellular system used.
In order to rule out cytotoxic and unspecific transcriptional compound effects a transfection with a firefly luciferase driven by the constitutive CMV promoter is performed in parallel.
After transfection 18 μl complete MEM medium containing 3% charcoal-dextran treated FBS is added as well as 4 μl test compounds (DMSO stocks prediluted in OptiMem (Invitrogen)) followed by incubation for 16-24 h at 37° C., 5% CO2 and 90% rH.
Firefly luciferase activity is measured using the Promega ONE-Glo™ Luciferase Assay System.
A general note: In a reporter assay the amount or activity of a reporter protein is the signal.

In assay [2] the target is human RORγ ligand binding domain (GST-hRORγ-LBD) (Homo sapiens (Human), UniProt P51449). The assay can be described thus: TR-FRET assay (biochemical cofactor interaction assay, GST-hRORγ-LBD / TRAP220 peptide). From the text: RORγ is an orphan member of the nuclear receptor (NR) family displaying constitutive activity. The activity of nuclear receptors can be modulated by ligand-induced cofactor protein interactions. For example, agonist binding leads to recruitment of coactivator protein, and antagonist binding either blocks coactivator interaction or facilitates the recruitment of corepressors. […] The conformational change induced by ligand binding influences interactions with LXXLL motif peptides.
Sequence of human RORγ ligand binding domain (GST-hRORγ-LBD) (P51449 269-508): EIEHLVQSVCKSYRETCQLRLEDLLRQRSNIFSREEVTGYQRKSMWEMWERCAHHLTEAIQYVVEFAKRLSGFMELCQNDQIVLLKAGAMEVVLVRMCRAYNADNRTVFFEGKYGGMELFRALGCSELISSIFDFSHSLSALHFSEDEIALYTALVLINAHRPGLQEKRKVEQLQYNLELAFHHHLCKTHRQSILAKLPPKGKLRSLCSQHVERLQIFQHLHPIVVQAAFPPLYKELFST
RORγ (t) is a thymus-specific isoform of RORγ which is widely expressed. It shares the same ligand binding domain (LBD) sequence with RORγ. Thus, a screen using the LBD will yield antagonists targeting both RORγ and RORγt.
In order to identify compounds which block activity of the human nuclear receptor Retinoid-related Orphan Receptor gamma (RORγ) a biochemical cofactor interaction assay based on the TR-FRET principle is performed. […] The ligand-binding domain (LBD) of RORγ is expressed as fusion protein with GST in […] cells using the vector pDEST15. Cells are lysed by lysozyme-treatment and sonication, and the fusion proteins purified over glutathione sepharose (Pharmacia) according to the manufacturers instructions. The strong constitutive interaction is disrupted upon binding of functional antagonists. The strength of the interaction is monitored by TR-FRET between streptavidine APC interacting with the biotinylated peptide and Europium-labelled Anti-GST.

As to `CC(C)c1nn(-c2ccccc2)cc1C1c2nnnn2CCN1Cc1cccs1` (racemic) [Compound 61, 8-(3-Isopropyl-1-phenyl-1H-pyrazol-4-yl)-7-thiophen-2-ylmethyl-5,6,7,8-tetrahydro-tetrazolo[1,5-a]pyrazine], the half-inhibitory concentration (IC50) in assay [1] and in assay [2] was 0.01 to 0.99 µM each time.
As to `Fc1ccc(CN2CCn3nnnc3C2c2cccc(F)c2)cc1` (racemic) [Compound 91, 7-(4-Fluoro-benzyl)-8-(3-fluoro-phenyl)-5,6,7,8-tetrahydro-tetrazolo[1,5-a]pyrazine], the values for the IC50 in assay [1] and in assay [2] were 0.01 to 0.99 µM and 0.99 to 9.9 µM, respectively.
For `Cc1cccc(CN2CCn3nnnc3C2c2ccc(F)cc2)c1` (racemic) [Compound 93, 8-(4-Fluoro-phenyl)-7-(3-methyl-benzyl)-5,6,7,8-tetrahydro-tetrazolo[1,5-a]pyrazine] the same measures were 9.9 to 40 µM and 0.01 to 0.99 µM.
For `Fc1ccc(C2c3nnnn3CCN2Cc2cccc(Br)c2)cc1` (racemic) [Compound 96, 7-(3-Bromo-benzyl)-8-(4-fluoro-phenyl)-5,6,7,8-tetrahydro-tetrazolo[1,5-a]pyrazine] the same measures were 0.99 to 9.9 µM and 0.01 to 0.99 µM.
For `CC(C)c1nn(-c2ccccc2)cc1C1c2nnnn2CCN1Cc1cccs1` (single isomer, unassigned) [Compound 61-a, 8-(3-Isopropyl-1-phenyl-1H-pyrazol-4-yl)-7-thiophen-2-ylmethyl-5,6,7,8-tetrahydro-tetrazolo[1,5-a]pyrazine] the same measures were 0.01 to 0.99 µM and 0.01 to 0.99 µM.
Turning to `CC(C)c1nn(-c2ccccc2)cc1C1c2nnnn2CCN1Cc1cccs1` (single isomer, unassigned) [Compound 61-b, 8-(3-Isopropyl-1-phenyl-1H-pyrazol-4-yl)-7-thiophen-2-ylmethyl-5,6,7,8-tetrahydro-tetrazolo[1,5-a]pyrazine], the IC50 was in the range of 0.99 to 9.9 µM in assay [1] and 9.9 to 40 µM in assay [2].
For `Fc1ccc(CN2CCn3nnnc3C2c2cccc(F)c2)cc1` (single isomer, unassigned) [Compound 91-b, 7-(4-Fluoro-benzyl)-8-(3-fluoro-phenyl)-5,6,7,8-tetrahydro-tetrazolo[1,5-a]pyrazine] the same measures were 0.99 to 9.9 µM and 0.99 to 9.9 µM.
Take `Cc1cccc(CN2CCn3nnnc3C2c2ccc(F)cc2)c1` (single isomer, unassigned) [Compound 93-a, 8-(4-Fluoro-phenyl)-7-(3-methyl-benzyl)-5,6,7,8-tetrahydro-tetrazolo[1,5-a]pyrazine]: the IC50 in assay [1] is 0.99 to 9.9 µM; in assay [2] it was 0.01 to 0.99 µM.
Take `Fc1ccc(C2c3nnnn3CCN2Cc2cccc(Br)c2)cc1` (single isomer, unassigned) [Compound 96-a, 7-(3-Bromo-benzyl)-8-(4-fluoro-phenyl)-5,6,7,8-tetrahydro-tetrazolo[1,5-a]pyrazine]: the IC50 lay within 0.99 to 9.9 µM in assay [1] and 0.01 to 0.99 µM in assay [2].
For `Fc1cccc(CN2CCn3nnnc3C2c2cccc(F)c2)c1` (centres unmarked) [Compound 38, 7-(3-Fluoro-benzyl)-8-(3-fluoro-phenyl)-5,6,7,8-tetrahydro-tetrazolo[1,5-a]pyrazine], the IC50 in assay [1] and in assay [2] was 0.99 to 9.9 µM in each case.
`CC(C)c1nn(-c2ccccc2)cc1CN1CCn2nnnc2C1c1cccs1` (centres unmarked) [Compound 48, 7-(3-Isopropyl-1-phenyl-1H-pyrazol-4-ylmethyl)-8-thiophen-2-yl-5,6,7,8-tetrahydro-tetrazolo[1,5-a]pyrazine]: the results for the IC50 in assay [1] and in assay [2] were 9.9 to 40 µM and 0.01 to 0.99 µM, respectively.
As for `COc1ccc(OC)c(CN2CCn3nnnc3C2c2cn(-c3ccccc3)nc2C(C)C)c1` (centres unmarked) [Compound 54, 7-(2,5-Dimethoxy-benzyl)-8-(3-isopropyl-1-phenyl-1H-pyrazol-4-yl)-5,6,7,8-tetrahydro-tetrazolo[1,5-a]pyrazine], the IC50 in assay [1] and in assay [2] was 9.9 to 40 µM in each case.
As for `CC(C)c1nn(-c2ccccc2)cc1C1c2nnnn2CCN1Cc1ccc2c(c1)OCO2` (centres unmarked) [Compound 58, 7-Benzo[1,3]dioxol-5-ylmethyl-8-(3-isopropyl-1-phenyl-1H-pyrazol-4-yl)-5,6,7,8-tetrahydro-tetrazolo[1,5-a]pyrazine], the values for the IC50 in assay [1] and in assay [2] were 0.99 to 9.9 µM and 9.9 to 40 µM, respectively.
Regarding `CC(C)c1nn(-c2ccccc2)cc1C1c2nnnn2CCN1Cc1cccc(F)c1F` (centres unmarked) [Compound 63, 7-(2,3-Difluoro-benzyl)-8-(3-isopropyl-1-phenyl-1H-pyrazol-4-yl)-5,6,7,8-tetrahydro-tetrazolo[1,5-a]pyrazine], the half-maximal inhibitory concentration (IC50) in assay [1] lay within 0.01 to 0.99 µM; in assay [2] it was 9.9 to 40 µM.
For `Brc1cccc(CN2CCn3nnnc3C2C2CCCCC2)c1` (centres unmarked) [Compound 65, 7-(3-Bromo-benzyl)-8-cyclohexyl-5,6,7,8-tetrahydro-tetrazolo[1,5-a]pyrazine] the same measures were 9.9 to 40 µM and 9.9 to 40 µM.
Take `COc1ccc(OC)c(CN2CCn3nnnc3C2c2cccc(F)c2F)c1` (centres unmarked) [Compound 71, 8-(2,3-Difluoro-phenyl)-7-(2,5-dimethoxy-benzyl)-5,6,7,8-tetrahydro-tetrazolo[1,5-a]pyrazine]: the IC50 in assay [1] and in assay [2] was 9.9 to 40 µM in each case.
As for `Cc1cccc(CN2CCn3nnnc3C2c2ccc3c(c2)OCCO3)c1` (centres unmarked) [Compound 95, 8-(2,3-Dihydro-benzo[1,4]dioxin-6-yl)-7-(3-methyl-benzyl)-5,6,7,8-tetrahydro-tetrazolo[1,5-a]pyrazine], the results for the half-maximal inhibitory concentration (IC50) in assay [1] and in assay [2] were 0.99 to 9.9 µM and 0.01 to 0.99 µM, respectively.
For `Cc1cccc(CN2CCn3nnnc3C2c2ccc(OC(C)C)cc2)c1` (centres unmarked) [Compound 99, 8-(4-Isopropoxy-phenyl)-7-(3-methyl-benzyl)-5,6,7,8-tetrahydro-tetrazolo[1,5-a]pyrazine] the same measures were 0.99 to 9.9 µM and 0.01 to 0.99 µM.
On to `Cc1cccc(C2c3nnnn3CCN2Cc2ccccc2)c1` (centres unmarked) [Compound 100, 7-Benzyl-8-m-tolyl-5,6,7,8-tetrahydro-tetrazolo[1,5-a]pyrazine], for which the IC50 in assay [1] was 9.9 to 40 µM; in assay [2], 0.01 to 0.99 µM.
For the compound `Fc1cc(F)cc(C2c3nnnn3CCN2Cc2ccccc2)c1` (centres unmarked) [Compound 101, 7-Benzyl-8-(3,5-difluoro-phenyl)-5,6,7,8-tetrahydro-tetrazolo[1,5-a]pyrazine], the half-maximal inhibitory concentration (IC50) lay in the range of 9.9 to 40 µM in assay [1] and 0.01 to 0.99 µM in assay [2].
Turning to `Fc1ccc(C2c3nnnn3CCN2Cc2ccccc2)cc1` (centres unmarked) [Compound 102, 7-Benzyl-8-(4-fluoro-phenyl)-5,6,7,8-tetrahydro-tetrazolo[1,5-a]pyrazine], the 50% inhibitory concentration (IC50) lay within 9.9 to 40 µM in assay [1] and 0.01 to 0.99 µM in assay [2].
Turning to `Clc1ccc(C2c3nnnn3CCN2Cc2cccs2)cc1` (centres unmarked) [Compound 106, 8-(4-Chloro-phenyl)-7-thiophen-2-ylmethyl-5,6,7,8-tetrahydro-tetrazolo[1,5-a]pyrazine], the results for the half-maximal inhibitory concentration (IC50) in assay [1] and in assay [2] were 9.9 to 40 µM and 0.01 to 0.99 µM, respectively.
For `Fc1cc(F)cc(C2c3nnnn3CCN2Cc2cccc(Br)c2)c1` (centres unmarked) [Compound 107, 7-(3-Bromo-benzyl)-8-(3,5-difluoro-phenyl)-5,6,7,8-tetrahydro-tetrazolo[1,5-a]pyrazine] the same measures were 9.9 to 40 µM and 0.01 to 0.99 µM.
Regarding `COc1ccc(OC)c(C2c3nnnn3CCN2Cc2cccc(F)c2F)c1` (centres unmarked) [Compound 151, 7-(2,3-Difluoro-benzyl)-8-(2,5-dimethoxy-phenyl)-5,6,7,8-tetrahydro-tetrazolo[1,5-a]pyrazine], the IC50 in assay [2] was in the range of 9.9 to 40 µM.
Same read-out and setting: for `CC(C)c1nn(-c2ccccc2)cc1C1c2nnnn2CCN1Cc1ccn[nH]1` (centres unmarked) [Compound 153, 8-(3-Isopropyl-1-phenyl-1H-pyrazol-4-yl)-7-(2H-pyrazol-3-ylmethyl)-5,6,7,8-tetrahydro-tetrazolo[1,5-a]pyrazine] the value was 9.9 to 40 µM.
The same measure, in the same setting: for `CCn1cc(CN2CCn3nnnc3C2c2cn(-c3ccccc3)nc2C(C)C)cn1` (centres unmarked) [Compound 155, 7-(1-Ethyl-1H-pyrazol-4-ylmethyl)-8-(3-isopropyl-1-phenyl-1H-pyrazol-4-yl)-5,6,7,8-tetrahydro-tetrazolo[1,5-a]pyrazine] the value was 9.9 to 40 µM; for `Cc1nn(C)c(C)c1CN1CCn2nnnc2C1c1cn(-c2ccccc2)nc1C(C)C` (centres unmarked) [Compound 157, 8-(3-Isopropyl-1-phenyl-1H-pyrazol-4-yl)-7-(1,3,5-trimethyl-1H-pyrazol-4-ylmethyl)-5,6,7,8-tetrahydro-tetrazolo[1,5-a]pyrazine], 9.9 to 40 µM.
